Experimental data from patent US20210346366A1, “CH24H INHIBITORS FOR PAIN USE” (Takeda Pharmaceutical Company Limited, priority 2018, published 2021).
pEC50: −log10 of the molar value.

What was measured:
NMDA receptors = settings: read-out: EC50 as positive allosteric modulator of NMDA receptors; cited from earlier work
[1] = test system: rat cortical spreading depression (CSD) model; test: rat cortical spreading depression (CSD) model, KCl-induced; assay type: in vivo; settings: female Wistar rats, 10 mg/kg orally once daily for 6 days
Experimental: The following Example provides data from a rat cortical spreading depression (CSD) model, which recapitulates symptoms seen in migraine patients with aura. (2R)-1-((1-(4-(4-Methyl-1H-pyrazol-1-yl)pyridin-3-yl)piperidin-4-yl)carbonyl)pyrrolidine-2-carbonitrile was tested in the CSD model for its potential effects on hyperperfusion events and cortical direct current (DC)-potentials. Adult female Wistar rats from Charles River Germany were used for the experiment. Animals were housed at a standard temperature (22±1° C.) and in a light-controlled environment (lights on from 7 am to 8 pm) with ad libitum access to food and water. Rats were orally treated with vehicle (0.5% methylcellulose in water) or (2R)-1-((1-(4-(4-methyl-1H-pyrazol-1-yl)pyridin-3-yl)piperidin-4-yl)carbonyl)pyrrolidine-2-carbonitrile at the dose of 10 mg/kg once daily for 6 days (n=8). One hour after the last dosing, rats were anesthetized with 5% isoflurane (in 70% N2O and 30% O2; flow 300 ml/min), and placed in a stereotactic frame.
During the operation and CSD the concentration of anesthetic was reduced to 1-1.5%. The rectal temperature was maintained at 37.0±1.0° C. with a homeothermic blanket system. The skin was opened by a medial incision and retracted laterally. Three burr holes were drilled under saline cooling over the right hemisphere at the following coordinates (mm from bregma): (1) posterior 4.5, lateral, 2.0 (occipital cortex): KCl application site; (2) posterior 0.5, lateral 2.0 (parietal cortex) (3) anterior 2, lateral 2 (frontal cortex). A laser-Doppler flow probe (Oxyflow, Oxford Optronics, UK) to monitor cerebral blood flow (CBF) was placed in the parietal cortex burr holes on the intact dura. An invasive Ag/AgCl electrode for measuring DC potential shifts was placed in the frontal cortex burr holes on the intact dura. For the DC-potential measurement, a reference electrode was fixed in the neck. […] The number of KCl-induced CSDs was checked over the period of 2 hours and the number of CBF changes was also measured. […]

[2] = test system: mouse model of chronic post-ischemic pain; test: mouse model of chronic post-ischemic pain (CRPS model), von Frey paw withdraw threshold; assay type: in vivo; settings: 30 mg/kg orally once daily for 7 days
Experimental: The following Example provides data from a mouse model of chronic post-ischemic pain, which recapitulates symptoms seen in CRPS patients with peripheral tissue injury and subsequent progression of allodynia. (4-Benzyl-4-hydroxypiperidin-1-yl) (2,4′-bipyridin-3-yl)methanone was tested in the CRPS model for its potential effects on pain. Following 3-hour ischemia and 0.5-hour reperfusion given at a hind limb, mice (C57) were orally treated with (4-benzyl-4-hydroxypiperidin-1-yl) (2,4′-bipyridin-3-yl)methanone at the dose of 30 mg/kg once daily for 7 days (n=8). Paw withdraw threshold was evaluated with von Frey filaments as a behavioral index of mechanical allodynia at 0 h for the base line, 6 h, Days 1, 2, 4 and 7. The cumulative score of paw withdraw threshold over the study period was 17.7 in the sham-treated control group without ischemia/reperfusion injury. In the groups given ischemic injury, the cumulative score was 9.0 and 16.2 for the vehicle control and (4-benzyl-4-hydroxypiperidin-1-yl) (2,4′-bipyridin-3-yl)methanone group, respectively.

In the case of `CC(C)[C@@H](O)CC[C@@H](C)[C@H]1CC[C@H]2[C@@H]3CC=C4C[C@@H](O)CC[C@]4(C)[C@H]3CC[C@]12C` [24(S)-hydroxycholesterol], the pEC50 (NMDA receptors) is listed as 5.92.

With `Cc1cnn(-c2ccncc2N2CCC(C(=O)N3CCC[C@@H]3C#N)CC2)c1` [(2R)-1-((1-(4-(4-methyl-1H-pyrazol-1-yl)pyridin-3-yl)piperidin-4-yl)carbonyl)pyrrolidine-2-carbonitrile] the “CSD events (effect of treatment)” value [1] was “markedly reduced”, the “average number of KCl-induced CSDs” value ([1]; counted over 2 hours, vehicle 10.00) was 4.75 and the “average number of CBF changes” value ([1]; over 2 hours, vehicle 22.75) was 15.75.

With `O=C(c1cccnc1-c1ccncc1)N1CCC(O)(Cc2ccccc2)CC1` [(4-benzyl-4-hydroxypiperidin-1-yl) (2,4′-bipyridin-3-yl)methanone] the “allodynia threshold (effect of treatment)” value ([2]; C57 mice with ischemic injury) was “markedly increased” and the “cumulative score of paw withdraw threshold over the study period” value ([2]; C57 mice, 3-hour ischemia and 0.5-hour reperfusion at a hind limb, von Frey filaments, vehicle 9.0, sham 17.7) was 16.2.
